Test results reported in EP0336446A1, “Gene and gene product for the production of beta-lactam-compounds” (BIOCHEMIE GESELLSCHAFT M.B.H., priority 1988, dated 1989).
Where “and” joins values, the source holds several entries; their conditions need not be identical. Identical values can stand only once.

Key:
[1] = biological target: T1, PAT (Penicillium chrysogenum, UniProt P15802); test: Substrate specificity of purified PAT (fraction AL 278/2), specific enzyme activity by HPLC; type: biochemical, Penicillium chrysogenum P2/ATCC 48271
T1 sequence (P15802 103-357 limits assumed): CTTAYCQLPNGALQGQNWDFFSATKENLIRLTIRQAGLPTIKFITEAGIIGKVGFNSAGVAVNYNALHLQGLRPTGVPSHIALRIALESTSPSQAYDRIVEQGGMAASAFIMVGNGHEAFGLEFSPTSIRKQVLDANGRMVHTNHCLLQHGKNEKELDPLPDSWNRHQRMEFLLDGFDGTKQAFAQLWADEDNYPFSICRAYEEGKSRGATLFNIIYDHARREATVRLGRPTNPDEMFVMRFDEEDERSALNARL
T1 sequence (P15802 1-102 limits assumed): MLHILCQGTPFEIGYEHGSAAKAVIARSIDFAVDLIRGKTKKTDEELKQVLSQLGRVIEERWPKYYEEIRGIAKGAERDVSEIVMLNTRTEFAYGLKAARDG

[2] = system: Micrococcus luteus ATCC 9341/BC 85; test: Agar diffusion test of penicillin standards (inhibition zone diameter); type: cell-based
[3] = biological target: T1, PAT; test: Microbiological agar diffusion test (Micrococcus luteus ATCC 9341/BC 85) of transacylation of Isopenicillin N with PaCoA by enzyme preparation AS-Präzipitat; type: biochemical, Penicillium chrysogenum P2/ATCC 48271
Protocol: (§1) Die, wie in Beispiel 2 beschrieben, hergestellte Enzymrohpräzipitation wird im mikrobiologischen Agardiffusionstest hinsichtlich Transacylierung von 6-APA bzw. Isopenicillin N mit PaCoA und Spaltung von Kalium Penicillin V mit bzw. ohne Inhibitorzusatz folgendermaßen getestet: Testkeim: Micrococcus luteus ATCC 9341/BC 85, 0,5% Einsaat Testmedium: Antibiotic Medium 1 (DIFCO), 110 ml Testplatte: Nunc 243x243x18 mm Probe: 50 µl pro Näpfchen (6 mm Durchmesser) Inkubation: 37°, 15 Stunden Enzym: AS-Präzipitat (hergestellt wie in Beispiel 2 beschrieben): 1 ml zentrifugiert (20.000 Upm/10 min), Überstand verworfen, Pellet in 20 ml RP + Z resuspendiert. RP + Z: 0,1 M Phosphatpuffer pH 7,5 + 1 mM DTT + 10 mM MgCl₂
Sofort bzw. nach 7, 30 und 60 Minuten Inkubationszeit werden 20 µl Aliquots der Ansätze entnommen, 1:5 mit 50% Ethanol (Stoppen der Enzymreaktion) verdünnt und im Agardiffusionstest auf Penicillingehalt getestet.

[4] = biological target: T1, PAT; test: Penicillin V cleavage by AS-Präzipitat, residual penicillin by agar diffusion test; type: biochemical, Penicillium chrysogenum P2/ATCC 48271
Protocol: as §1

[5] = labelled substance = Acyldonator, Acylakzeptor H₂O, Produkt 6-APA
[6] = labelled substance = Acylakzeptor, Acyldonator PaCoA
[7] = labelled substance = Acylakzeptor, Acyldonator PeCoA

7-Glutaryl-APA
mittels HPLC bestimmte spezifische Enzymaktivität (mU/mg Protein) A1 278/2 [1, 5]: 106 mU/mg Protein

CC(=O)OCC1=C(C(=O)O)N2C(=O)[C@@H](N)[C@H]2SC1 [7-ACA]
mittels HPLC bestimmte spezifische Enzymaktivität (mU/mg Protein) A1 278/2 [1, 6]: 0 mU/mg Protein

CC1=C(C(=O)O)N2C(=O)[C@@H](N)[C@H]2SC1 [7-ADCA, 7-Amino-3-desacetoxycephalosporansäure]
mittels HPLC bestimmte spezifische Enzymaktivität (mU/mg Protein) A1 278/2 [1, 6]: 49 mU/mg Protein

CC(=O)OCC1=C(C(=O)O)N2C(=O)[C@@H](NC(=O)CCC[C@@H](N)C(=O)O)[C@H]2SC1 [Cephalosporin C]
mittels HPLC bestimmte spezifische Enzymaktivität (mU/mg Protein) A1 278/2 [1, 6]: 0 mU/mg Protein

CC1(C)S[C@@H]2[C@H](NC(=O)CCC[C@H](N)C(=O)O)C(=O)N2[C@H]1C(=O)O [Isopenicillin N Nr. 28, Isopenicillin N]
zone of inhibition at 12.5 µg/mL ([2]; Micrococcus luteus, ATCC9341, 15 h, read-out: HH ⌀ mm, Isopenicillin N Std. 12.5 µg/ml): 12.4 mm
zone of inhibition at 25 µg/mL ([2]; Micrococcus luteus, ATCC9341, 15 h, read-out: HH ⌀ mm, Isopenicillin N Std. 25 µg/ml): 16.5 mm
zone of inhibition at 50 µg/mL ([2]; Micrococcus luteus, ATCC9341, 15 h, read-out: HH ⌀ mm, Isopenicillin N Std. 50 µg/ml): 20 mm
Transacylierung von Isopenicillin N (#28 u 36) mit PaCoA (HH ⌀ mm) ([3]; a) ohne Inhibitor, 7′, listed as Nr. 28): 25.5 mm
Transacylierung von Isopenicillin N (#28 u 36) mit PaCoA (HH ⌀ mm) ([3]; a) ohne Inhibitor, 30′, listed as Nr. 28): 26.0 mm
Transacylierung von Isopenicillin N (#28 u 36) mit PaCoA (HH ⌀ mm) ([3]; a) ohne Inhibitor, 60′, listed as Nr. 28): 23.0 mm
Transacylierung von Isopenicillin N (#28 u 36) mit PaCoA (HH ⌀ mm) ([3]; a) ohne Inhibitor, s (sofort), listed as Nr. 28): 22.5 mm
Transacylierung von Isopenicillin N (#28 u 36) mit PaCoA (HH ⌀ mm) ([3]; b) 2 mM Jodacetamid, 7′, listed as Nr. 28): 20.8 mm
Transacylierung von Isopenicillin N (#28 u 36) mit PaCoA (HH ⌀ mm) ([3]; b) 2 mM Jodacetamid, 30′, listed as Nr. 28): 18.3 mm
Transacylierung von Isopenicillin N (#28 u 36) mit PaCoA (HH ⌀ mm) ([3]; b) 2 mM Jodacetamid, 60′, listed as Nr. 28): 14.7 mm
Transacylierung von Isopenicillin N (#28 u 36) mit PaCoA (HH ⌀ mm) ([3]; b) 2 mM Jodacetamid, s (sofort), listed as Nr. 28): 21.1 mm
Transacylierung von Isopenicillin N (#28 u 36) mit PaCoA (HH ⌀ mm) ([3]; c) 2 mM PMSF, 7′, listed as Nr. 28): 24.7 mm
Transacylierung von Isopenicillin N (#28 u 36) mit PaCoA (HH ⌀ mm) ([3]; c) 2 mM PMSF, 30′, listed as Nr. 28): 25.7 mm
Transacylierung von Isopenicillin N (#28 u 36) mit PaCoA (HH ⌀ mm) ([3]; c) 2 mM PMSF, 60′, listed as Nr. 28): 20.7 mm
Transacylierung von Isopenicillin N (#28 u 36) mit PaCoA (HH ⌀ mm) ([3]; c) 2 mM PMSF, s (sofort), listed as Nr. 28): 22.7 mm

CC1(C)S[C@@H]2[C@H](NC(=O)CCC[C@H](N)C(=O)O)C(=O)N2[C@H]1C(=O)O [Isopenicillin N Nr. 36, Isopenicillin N]
HH ⌀ mm ([2]; Isopenicillin N Std. 12.5 µg/ml): 18.4 mm
HH ⌀ mm ([2]; Isopenicillin N Std. 25 µg/ml): 22.1 mm
HH ⌀ mm ([2]; Isopenicillin N Std. 50 µg/ml): 24.5 mm
Transacylierung von Isopenicillin N (#28 u 36) mit PaCoA (HH ⌀ mm) ([3]; a) ohne Inhibitor, 7′, listed as Nr. 36): 28.3 mm
Transacylierung von Isopenicillin N (#28 u 36) mit PaCoA (HH ⌀ mm) ([3]; a) ohne Inhibitor, 30′, listed as Nr. 36): 30.8 mm
Transacylierung von Isopenicillin N (#28 u 36) mit PaCoA (HH ⌀ mm) ([3]; a) ohne Inhibitor, 60′, listed as Nr. 36): 28.7 mm
Transacylierung von Isopenicillin N (#28 u 36) mit PaCoA (HH ⌀ mm) ([3]; a) ohne Inhibitor, s (sofort), listed as Nr. 36): 27.0 mm
Transacylierung von Isopenicillin N (#28 u 36) mit PaCoA (HH ⌀ mm) ([3]; b) 2 mM Jodacetamid, 7′, listed as Nr. 36): 25.0 mm
Transacylierung von Isopenicillin N (#28 u 36) mit PaCoA (HH ⌀ mm) ([3]; b) 2 mM Jodacetamid, 30′, listed as Nr. 36): 23.6 mm
Transacylierung von Isopenicillin N (#28 u 36) mit PaCoA (HH ⌀ mm) ([3]; b) 2 mM Jodacetamid, 60′, listed as Nr. 36): 22.1 mm
Transacylierung von Isopenicillin N (#28 u 36) mit PaCoA (HH ⌀ mm) ([3]; b) 2 mM Jodacetamid, s (sofort), listed as Nr. 36): 25.2 mm
Transacylierung von Isopenicillin N (#28 u 36) mit PaCoA (HH ⌀ mm) ([3]; c) 2 mM PMSF, 7′, listed as Nr. 36): 27.2 mm
Transacylierung von Isopenicillin N (#28 u 36) mit PaCoA (HH ⌀ mm) ([3]; c) 2 mM PMSF, 30′, listed as Nr. 36): 27.7 mm
Transacylierung von Isopenicillin N (#28 u 36) mit PaCoA (HH ⌀ mm) ([3]; c) 2 mM PMSF, 60′, listed as Nr. 36): 26.7 mm
Transacylierung von Isopenicillin N (#28 u 36) mit PaCoA (HH ⌀ mm) ([3]; c) 2 mM PMSF, s (sofort), listed as Nr. 36): 26.3 mm

CC1(C)S[C@@H]2[C@H](NC(=O)CCC[C@H](N)C(=O)O)C(=O)N2[C@H]1C(=O)O [Isopenicillin N]
mittels HPLC bestimmte spezifische Enzymaktivität (mU/mg Protein) A1 278/2 [1, 6]: 146 mU/mg Protein
mittels HPLC bestimmte spezifische Enzymaktivität (mU/mg Protein) A1 278/2 [1, 7]: 80 mU/mg Protein
mittels HPLC bestimmte spezifische Enzymaktivität (mU/mg Protein) A1 278/2 [1, 5]: 150 mU/mg Protein

CC1(C)S[C@@H]2[C@H](NC(=O)COc3ccccc3)C(=O)N2[C@H]1C(=O)O [Kalium Penicillin V]
HH ⌀ mm ([2]; Penicillin V Std. 0.25 µg/ml): 11.9 mm
HH ⌀ mm ([2]; Penicillin V Std. 0.5 µg/ml): 18.4 mm
HH ⌀ mm ([2]; Penicillin V Std. 1.0 µg/ml): 23.4 mm
HH ⌀ mm ([2]; Penicillin V Std. 1.5 µg/ml): 24.7 mm
HH ⌀ mm ([2]; Penicillin V Std. 2.0 µg/ml): 27.4 mm
Spaltung von Kalium Penicillin V (HH ⌀ mm) ([4]; a) ohne Inhibitor, 7′): 21.8 mm
Spaltung von Kalium Penicillin V (HH ⌀ mm) ([4]; a) ohne Inhibitor, 30′): 0 mm
Spaltung von Kalium Penicillin V (HH ⌀ mm) ([4]; a) ohne Inhibitor, 60′): 0 mm
Spaltung von Kalium Penicillin V (HH ⌀ mm) ([4]; a) ohne Inhibitor, s): 25.7 mm
Spaltung von Kalium Penicillin V (HH ⌀ mm) ([4]; b) + 2 mM Jodacetamid, 7′): 23.1 mm
Spaltung von Kalium Penicillin V (HH ⌀ mm) ([4]; b) + 2 mM Jodacetamid, 30′): 0 mm
Spaltung von Kalium Penicillin V (HH ⌀ mm) ([4]; b) + 2 mM Jodacetamid, 60′): 0 mm
Spaltung von Kalium Penicillin V (HH ⌀ mm) ([4]; b) + 2 mM Jodacetamid, s): 25.7 mm
Spaltung von Kalium Penicillin V (HH ⌀ mm) ([4]; c) + 2 mM Ethylmaleinimid, 7′): 23.0 mm
Spaltung von Kalium Penicillin V (HH ⌀ mm) ([4]; c) + 2 mM Ethylmaleinimid, 30′): 0 mm
Spaltung von Kalium Penicillin V (HH ⌀ mm) ([4]; c) + 2 mM Ethylmaleinimid, 60′): 0 mm
Spaltung von Kalium Penicillin V (HH ⌀ mm) ([4]; c) + 2 mM Ethylmaleinimid, s): 25.0 mm
Spaltung von Kalium Penicillin V (HH ⌀ mm) ([4]; d) + 2 mM PMSF, 7′): 0 mm
Spaltung von Kalium Penicillin V (HH ⌀ mm) ([4]; d) + 2 mM PMSF, 30′): 0 mm
Spaltung von Kalium Penicillin V (HH ⌀ mm) ([4]; d) + 2 mM PMSF, 60′): 0 mm
Spaltung von Kalium Penicillin V (HH ⌀ mm) ([4]; d) + 2 mM PMSF, s): 25.3 mm

CC1(C)S[C@@H]2[C@H](NC(=O)Cc3ccccc3)C(=O)N2[C@H]1C(=O)O [Penicillin G]
mittels HPLC bestimmte spezifische Enzymaktivität (mU/mg Protein) A1 278/2 [1, 6]: 25 mU/mg Protein
mittels HPLC bestimmte spezifische Enzymaktivität (mU/mg Protein) A1 278/2 [1, 5]: 17 mU/mg Protein

CC1(C)S[C@@H]2[C@H](NC(=O)COc3ccccc3)C(=O)N2[C@H]1C(=O)O [Penicillin V]
zone of inhibition at 0.25 µg/mL ([2]; Micrococcus luteus, ATCC9341, 15 h, Penicillin V Std. 0.25 µg/ml, read-out: HH ⌀ mm): 9.7 mm
zone of inhibition at 0.5 µg/mL ([2]; Micrococcus luteus, ATCC9341, 15 h, Penicillin V Std. 0.5 µg/ml, read-out: HH ⌀ mm): 17.6 mm
zone of inhibition at 1 µg/mL ([2]; Micrococcus luteus, ATCC9341, 15 h, Penicillin V Std. 1.0 µg/ml, read-out: HH ⌀ mm): 21.7 mm
zone of inhibition at 1.5 µg/mL ([2]; Micrococcus luteus, ATCC9341, 15 h, Penicillin V Std. 1.5 µg/ml, read-out: HH ⌀ mm): 24 mm
zone of inhibition at 2 µg/mL ([2]; Micrococcus luteus, ATCC9341, 15 h, Penicillin V Std. 2.0 µg/ml, read-out: HH ⌀ mm): 25.3 mm
HH ⌀ mm ([2]; Penicillin V Std. 0.25 µg/ml): 11.9 mm
HH ⌀ mm ([2]; Penicillin V Std. 0.5 µg/ml): 17.8 mm and 18.4 mm
HH ⌀ mm ([2]; Penicillin V Std. 1.0 µg/ml): 23.4 mm
HH ⌀ mm ([2]; Penicillin V Std. 1.5 µg/ml): 24.7 mm
HH ⌀ mm ([2]; Penicillin V Std. 2.0 µg/ml): 27.4 mm
mittels HPLC bestimmte spezifische Enzymaktivität (mU/mg Protein) A1 278/2 [1, 7]: 99 mU/mg Protein
mittels HPLC bestimmte spezifische Enzymaktivität (mU/mg Protein) A1 278/2 [1, 5]: 75 mU/mg Protein

Penicillin
antibakterielle Sensitivität gegenüber Penicillin als gegenüber 6-APA ([2]; Micrococcus luteus ATCC 9341, relative to 6-APA): mehr als drei Zehnerpotenzen
